Measurements: patent publication US12643924B2, “Cardiac-specific targeting-peptide (CTP), compositions, and uses thereof” (University of Pittsburgh—Of the Commonwealth System of …, priority 2018, dated 2026)
Where no end group is shown, it is not given here.

Experiments:
myocardial tissue = assay: Fluorescence intensity in myocardial tissue 15 minutes after injection of fluorescently-labeled CTP variants; type: in vivo; settings: mice; for fluorescence intensity in myocardial tissue compared to CTP: FIG. 6B
Description: Additionally, fluorescently-labeled CTP variants (CTP, CTP-B, H4A, P2A) or fluorescently-labeled random peptide sequence (RAN) were injected into mice and fluorescence intensity was measured in fixed myocardial tissue. Mice were injected with peptides, and, 15 minutes after injection, heart tissue was dissected, cryosectioned, stained, and analyzed for fluorescence intensity.

H9C2 cells [1] = assay: Fluorescence activated cell sorting of H9C2 cells after 30 min incubation with 10 uM peptide (median Cy5.5); type: cell-based, rat; settings: for Corrected Median Cy5.5 / Raw Median Cy5.5: H9C2 cells, 30 min incubation, 10 uM peptide, single replicates; for Corrected Median Cy5.5: corrected for peptide fluorescence; for Average Correction: average of corrected median Cy5.5, H9C2 cells, FIG. 1C
Description: (§1) Variants of SEQ ID NO: 1 in which every amino acid was systematically mutated to alanine were synthesized in the University of Pittsburgh Peptide Synthesis Facility. Each variant was conjugated to the Cyanine5.5 fluorescent dye (Cy5.5). The rat cardiomyocyte cell line H9C2 (ATCC, catalogue #: CRL-1446) was incubated for 30 minutes at 37° C. with Dimethyl sulfoxide (DMSO) as a control, or the alanine peptide variants. Cells were then washed 3 times with PBS, trypsinized and resuspended, stained for live/dead cells, and then FACS sorted for Cy5.5 positive cells.

H9C2 cells [2] = assay: Alanine scan: percentage of Cy5.5 positive H9C2 cells by FACS; type: cell-based, rat; settings: percentage of Cy5.5 positive H9C2 cells normalized to non-mutated peptide (SEQ ID NO: 1); Cy5.5-conjugated peptides, 30 minutes at 37° C.
Description: as §1
The percentage of Cy5.5 positive H9C2 cells, normalized to the non-mutated peptide (SEQ ID NO: 1), for each peptide variant is summarized in Table 2 below.

H9C2 cells and MEFs = type: cell-based; settings: compared to full-length peptide and DMSO control; FIG. 2E
Description: (§2) FIGS. 2A-2E are a series of bar graphs that show the transduction efficiencies and viability of various cell types incubated with Cy5.5 labeled cardiac-specific targeting peptide variants. […] CTP (Full Length): NH2-APWHLSSQYSRT-COOH (SEQ ID NO: 1); CTP-A: NH2-APWHLS-COOH (SEQ ID NO: 24); CTP-B: NH2-SQYSRT-COOH (CTP6aa; SEQ ID NO: 5); cyclic: cyclized version of the indicated peptide; CTP-Random: random, linear, 12-amino acid peptide (RAN: NH2-STLMKFCYVEQN-COOH ((SEQ ID NO: 26)); DMSO: Dimethyl sulfoxide.
(§3) Solid-phase peptide synthesis were used to synthesize the full-length form (NH2-APWHLSSQYSRT-COOH (SEQ ID NO: 1)), as well as an N-terminus 6 amino acid called CTP-A (NH2-APWHLS-COOH (SEQ ID NO: 24)), or as CTP6aa (NH2-SQYSRT-COOH (SEQ ID NO: 5)) peptides. Full length and CTP6aa were also synthesized in a cyclic forms. A random, linear, 12-amino acid long peptide (RAN: NH2-STLMKFCYVEQN-COOH (SEQ ID NO: 26)) was also synthesized to serve as control. All peptides were fluorescently labeled with Cyanine5.5 (Cy5.5). Isolated, beating neonatal mouse cardiomyocytes (CMC) were incubated with 10 μM of the peptides at 37° C. for 30 minutes, washed extensively with PBS and confocal microscopy performed. […]

[3] = test system: H9C2 cells, MEF cells, 3T3 cells; assay: Transduction of cell lines by Cy5.5 labeled N- and C-terminal CTP variants (FACS); type: cell-based; settings: across all three cell lines; FIGS. 2A-2D
Description: as §2, §3

## AAWHLSSQYSRT (also: Cy5.5 conjugate, site not given here) [P2A, alanine variant of CTP, Cy5.5 conjugated]
Myocardial tissue
  fluorescence intensity in myocardial tissue compared to CTP: significantly greater
H9C2 cells [1]; listed as P2A_001
  Corrected Median Cy5.5: 9901.8
  Raw Median Cy5.5: 9449
H9C2 cells [1]; listed as P2A_002
  Corrected Median Cy5.5: 9298.9
  Raw Median Cy5.5: 8834
H9C2 cells [1]; listed as P2A_003
  Corrected Median Cy5.5: 9488.4
  Raw Median Cy5.5: 9014
H9C2 cells [1]
  Average Correction: 9535.0
H9C2 cells [2]
  % transduction of H9C2 Cells: 59.15%

## APWHLSSQYSRT (also: Cy5.5 label, site not given here) [CTP, 12-amino acid cardiac-specific targeting peptide, tested conjugated to Cy5.5]
H9C2 cells [1]; listed as CTP_001
  Corrected Median Cy5.5: 5652.0
  Raw Median Cy5.5: 5652
H9C2 cells [1]; listed as CTP_002
  Corrected Median Cy5.5: 6028.0
  Raw Median Cy5.5: 6028
H9C2 cells [1]; listed as CTP_003
  Corrected Median Cy5.5: 6308.0
  Raw Median Cy5.5: 6308
H9C2 cells [1]
  Average Correction: 5996
H9C2 cells [2]
  % transduction of H9C2 Cells: 100%

## SQYSRT (Description of Artificial Sequence: Cardiac Targeting Peptide (CTP-B)) [linear six C-terminal amino acid cardiac-specific targeting peptide]
Myocardial tissue
  uptake compared to random peptide sequence and CTP: superior uptake
  fluorescence intensity in myocardial tissue compared to CTP: significantly greater
H9C2 cells and MEFs
  cell viability: did not alter cell viability
H9C2 cells [1]; listed as CTP-B_001
  Corrected Median Cy5.5: 5663.7
  Raw Median Cy5.5: 4711
H9C2 cells [1]; listed as CTP-B_002
  Corrected Median Cy5.5: 6469.2
  Raw Median Cy5.5: 5381
H9C2 cells [1]; listed as CTP-B_003
  Corrected Median Cy5.5: 6240.8
  Raw Median Cy5.5: 5191
H9C2 cells [1]
  Average Correction: 6124.6
[3]
  transduction compared to the full-length peptide: at least as well as the full-length peptide
